Values quoted from earlier work in PubChem BioAssay AID1259409 (Chemical Carcinogenesis Research Information System (CCRIS), 2018).

System: rodent chemically induced tumor inhibition, incidence and multiplicity
Assay: CCRIS tumor inhibitor studies

Structure (SMILES) | tumour outcome (control, treated, inhibition, significance) (Carcinogen: 7,12-Dimethylbenz(a)anthracene (57-97-6), Dose [Inhibitor]: 10 mg administered daily for 28 days, Route [Inhibitor]: Subcutaneous, Species: Rat, Strain/Sex: Sprague-Dawley/Female, Target Tissue: Type of Lesion: Mammary gland: Adenocarcinoma and papillary carcinoma, Dose [Carcinogen]: 10 mg/kg once at 50 days of age, Promoter: None) | tumour outcome (control, treated, inhibition, significance) (Carcinogen: N-NITROSOBIS(2-OXOPROPYL)AMINE [60599-38-4], Dose [Inhibitor]: 5 MG/KG EACH WEEKDAY OVER A PERIOD OF 16 WKS STARTING AT 4 WKS (STUDY DURATION: 20 WKS), Route [Inhibitor]: ORAL (GAVAGE?), Species: HAMSTER, Strain/Sex: SYRIAN GOLDEN/FEMALE, Target Tissue: Type of Lesion: GALL BLADDER: CARCINOMA IN SITU, Dose [Carcinogen]: 10 MG/KG BW AT WKS 4, 6, 8, 10, 12, 14, 16, 18 (8 DOSES) (STUDY DURATION: 20 WKS))
CC#C[C@]1(O)CC[C@H]2[C@@H]3CCC4=CC(=O)CCC4=C3[C@@H](c3ccc(N(C)C)cc3)C[C@@]21C | 12/13 (92%), 13/14 (93%), 0% ns | 
Cc1cnc(NC(=O)C2=C(O)c3ccccc3S(=O)(=O)N2C)s1 |  | 4/11 (36%), 0/11 (0%), 100%, not significant
